Patent US20090270350A1, “Pyridinone Pyrazole Urea and Pyrimidinone Pyrazole Urea Derivatives” (PFIZER INC., priority 2006, published 2009)

The molecules below were run against p38α (Homo sapiens, UniProt Q16539) (assay: p38α/MK2 cascade assay). Details: Table 1; inhibitors preincubated with p38α for 40 minutes; phosphorylation of Hsp27 peptide by MK-2, Caliper LabChip 3000; read-out: p38a/MK2 Cascade 40 min Pre-Incuabtion (% Inhibition): IC50.
Type: biochemical
Protocol: The ability of compounds to inhibit activated p38α was determined in a p38α/MK-2 cascade assay format. The kinase activity of p38α is determined by its ability to phosphorylate/activate nonactive MK2 (54-400). Activation of MK-2 by p38α is measured by following the phosphorylation of a MK-2 specific peptide, Hsp27 peptide (FITC-KKKALSRQLSVAA). The phosphorylation of the Hsp27 peptide was quantified using the Caliper LabChip 3000. The kinase reactions were carried out in 20 mM HEPES pH 7.5, 10 mM MgCl2, 0.0005% Tween-20, 0.01% BSA, 1 mM DTT, and 2% DMSO. The inhibitors were varied between 1000-0.05 nM, while the Hsp27 peptide substrate, MgATP, and nonactive MK-2 (54-400) were held constant at 0.5 µM, 5 µM, and 1 nM, respectively. Inhibitors were preincubated with p38α for 40 minutes prior to initiating the reaction with peptide, MgATP, and MK-2. The kinase reactions were quenched after 60 minutes by the addition of stop buffer (180 mM HEPES, 30 mM EDTA, and 0.2% Coating Reagent-3).
The above protocol assay was used to determine the IC50 values for some of the compounds in the above Examples.
IC50 values were determined for the compounds listed in Table 2, using the same p38α/MK2 cascade assay used to determine the IC50 values for the compounds in Table 1. The compounds of Table 2 were prepared using methods similar to those listed in the Examples for compounds of Table 1.

Sequence of p38α (Q16539 whole entry): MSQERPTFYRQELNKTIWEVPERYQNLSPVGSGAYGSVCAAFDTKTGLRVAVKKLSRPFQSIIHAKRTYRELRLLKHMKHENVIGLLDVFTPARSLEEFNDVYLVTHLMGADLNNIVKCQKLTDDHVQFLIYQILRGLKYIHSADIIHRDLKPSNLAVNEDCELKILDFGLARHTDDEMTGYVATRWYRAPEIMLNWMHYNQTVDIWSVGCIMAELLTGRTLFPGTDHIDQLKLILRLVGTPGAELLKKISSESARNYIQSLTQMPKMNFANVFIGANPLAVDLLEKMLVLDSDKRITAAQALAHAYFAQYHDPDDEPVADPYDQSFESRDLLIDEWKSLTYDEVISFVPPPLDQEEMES

Compared with COc1cccc(-n2nc(C(C)(C)C)cc2NC(=O)NCc2ccccc2COc2cc(C)n(Cc3ccccc3)c(=O)c2Br)c1 [Example 109, 1-(2-{[(1-benzyl-3-bromo-6-methyl-2-oxo-1,2-dihydropyridin-4-yl)oxy]methyl}benzyl)-3-[3-tert-butyl-1-(3-methoxyphenyl)-1H-pyrazol-5-yl]urea], Cc1cc(OCc2ccccc2CNC(=O)Nc2cc(C(C)(C)C)nn2-c2cccc(Cl)c2)c(Br)c(=O)n1Cc1ccccc1 [Example 108, 1-(2-{[(1-benzyl-3-bromo-6-methyl-2-oxo-1,2-dihydropyridin-4-yl)oxy]methyl}benzyl)-3-[3-tert-butyl-1-(3-chlorophenyl)-1H-pyrazol-5-yl]urea] is 1.7-fold lower in IC50: 6.38 nM for the first, 3.71 nM for the second.

COc1ccc(Cn2c(C)cc(OCc3ccccc3CNC(=O)Nc3cc(C(C)(C)C)nn3-c3cccc(O)c3)c(Cl)c2=O)cc1Cl [Example 65, 1-[3-tert-butyl-1-(3-hydroxyphenyl)-1H-pyrazol-5-yl]-3-[2-({[3-chloro-1-(3-chloro-4-methoxybenzyl)-6-methyl-2-oxo-1,2-dihydropyridin-4-yl]oxy}methyl)benzyl]urea] and COc1ccc(Cn2c(C)cc(OCc3ccccc3CNC(=O)Nc3cc(C(C)(C)C)nn3-c3ccc(C)cc3)c(Br)c2=O)cc1 [Example 101, 1-[2-({[3-bromo-1-(4-methoxybenzyl)-6-methyl-2-oxo-1,2-dihydropyridin-4-yl]oxy}methyl)benzyl]-3-[3-tert-butyl-1-(4-methylphenyl)-1H-pyrazol-5-yl]urea] are within 1.5-fold of each other in IC50: 6.9 nM for the first, 8.19 nM for the second.

Cc1ccc(-n2nc(C(C)(C)C)cc2NC(=O)NCc2ccccc2COc2cc(C)n(Cc3ccccc3)c(=O)c2C)cc1 [Example 128-C, 1-(2-{[(1-benzyl-3,6-dimethyl-2-oxo-1,2-dihydropyridin-4-yl)oxy]methyl}benzyl)-3-[3-tert-butyl-1-(4-methylphenyl)-1H-pyrazol-5-yl]urea] was tested, and the IC50 was 12.1 nM.

Same assay, conditions: Table 2; same p38α/MK2 cascade assay; 40 minutes preincubation; read-out: p38a/MK2 Cascade 40 min Pre-Incuabtion (% Inhibition): IC50

COc1ccccc1Cn1c(C)cc(OCc2ccccc2CNC(=O)Nc2cc(C(C)(C)C)nn2-c2ccc(O)c(Cl)c2)c(C)c1=O [Example 264, 1-[3-tert-butyl-1-(3-chloro-4-hydroxyphenyl)-1H-pyrazol-5-yl]-3-[2-({[1-(2-methoxybenzyl)-3,6-dimethyl-2-oxo-1,2-dihydro-pyridin-4-yl]oxy}methyl)benzyl]urea] and COc1ccc(Cn2c(C)cc(OCc3ccccc3CNC(=O)Nc3cc(C(C)(C)C)nn3-c3ccc(O)c(Cl)c3)c(C)c2=O)cc1Cl [Example 266, 1-[3-tert-butyl-1-(3-chloro-4-hydroxyphenyl)-1H-pyrazol-5-yl]-3-[2-({[1-(3-chloro-4-methoxybenzyl)-3,6-dimethyl-2-oxo-1,2-dihydropyridin-4-yl]oxy}methyl)benzyl]urea] are within 1.5-fold of each other in IC50: 27.4 nM for the first, 19.2 nM for the second.

Compared with CNC(=O)c1ccc(C)c(-n2c(C)cc(OCc3ccc(F)cc3CNC(=O)Nc3cc(C(C)(C)C)nn3-c3cccc(OC)c3)c(Cl)c2=O)c1 [Example 208, 3-{4-[(2-{[({[3-tert-butyl-1-(3-methoxyphenyl)-1H-pyrazol-5-yl]amino}carbonyl)amino]methyl}-4-fluorobenzyl)oxy]-3-chloro-6-methyl-2-oxopyridin-1(2H)-yl}-N,4-dimethyl-benzamide], CNC(=O)c1ccc(C)c(-n2c(C)cc(OCc3ccc(F)cc3CNC(=O)Nc3cc(C(C)(C)C)nn3-c3ccc(O)c(Cl)c3)c(Cl)c2=O)c1 [Example 236, 3-{4-[(2-{[({[3-tert-butyl-1-(3-chloro-4-hydroxyphenyl)-1H-pyrazol-5-yl]amino}carbonyl)amino]methyl}-4-fluorobenzyl)-oxy]-3-chloro-6-methyl-2-oxopyridin-1(2H)-yl}-N,4-dimethyl-benzamide] is 4.2-fold higher in IC50: 1.79 nM for the first, 7.5 nM for the second. The first is the more potent here.

Going from COc1cc(Cn2c(C)cc(OCc3ccccc3CNC(=O)Nc3cc(C(C)(C)C)nn3-c3ccc(O)cc3)c(Cl)c2=O)ccc1Cl [Example 258, 1-[3-tert-butyl-1-(4-hydroxyphenyl)-1H-pyrazol-5-yl]-3-[2-({[3-chloro-1-(4-chloro-3-methoxybenzyl)-6-methyl-2-oxo-1,2-dihydropyridin-4-yl]oxy}methyl)benzyl]urea] to COc1cc(Cn2c(C)cc(OCc3ccccc3CNC(=O)Nc3cc(C(C)(C)C)nn3-c3ccc(O)c(Cl)c3)c(Cl)c2=O)ccc1Cl [Example 254, 1-[3-tert-butyl-1-(3-chloro-4-hydroxyphenyl)-1H-pyrazol-5-yl]-3-[2-({[3-chloro-1-(4-chloro-3-methoxybenzyl)-6-methyl-2-oxo-1,2-dihydropyridin-4-yl]oxy}methyl)benzyl]urea], the IC50 rises from 10.1 nM to 26.6 nM (2.6-fold).

Going from Cc1ccc(C(=O)NCCN(C)C)cc1-n1c(C)cc(OCc2ccccc2CNC(=O)Nc2cc(C(C)(C)C)nn2-c2ccc(Cl)c(O)c2)c(Cl)c1=O [Example 231, 3-{4-[(2-{[({[3-tert-butyl-1-(4-chloro-3-hydroxyphenyl)-1H-pyrazol-5-yl]amino}carbonyl)amino]methyl}benzyl)oxy]-3-chloro-6-methyl-2-oxopyridin-1(2H)-yl}-N-[2-(dimethylamino)-ethyl]-4-methylbenzamide] to COC(=O)c1ccc(C)c(-n2c(C)cc(OCc3ccccc3CNC(=O)Nc3cc(C(C)(C)C)nn3-c3ccc(Cl)c(O)c3)c(Cl)c2=O)c1 [Example 221, methyl 3-{4-[(2-{[({[3-tert-butyl-1-(4-chloro-3-hydroxy-phenyl)-1H-pyrazol-5-yl]amino}carbonyl)amino]-methyl}-benzyl)oxy]-3-chloro-6-methyl-2-oxopyridin-1(2H)-yl}-4-methylbenzoate], the IC50 rises from 1.8 nM to 10.5 nM (5.8-fold). The first is the more potent here.

Compared with Cc1ccc(C(=O)NCCO)cc1-n1c(C)cc(OCc2ccccc2CNC(=O)Nc2cc(C(C)(C)C)nn2-c2ccc(O)cc2)c(Cl)c1=O [Example 216, 3-{4-[(2-{[({[3-tert-butyl-1-(4-hydroxyphenyl)-1H-pyrazol-5-yl]amino}carbonyl)amino]methyl}benzyl)oxy]-3-chloro-6-methyl-2-oxopyridin-1(2H)-yl}-N-(2-hydroxyethyl)-4-methyl-benzamide], Cc1ccc(C(=O)NCC(N)=O)cc1-n1c(C)cc(OCc2ccccc2CNC(=O)Nc2cc(C(C)(C)C)nn2-c2ccc(O)cc2)c(Cl)c1=O [Example 219, N-(2-amino-2-oxoethyl)-3-{4-[(2-{[({[3-tert-butyl-1-(4-hydroxyphenyl)-1H-pyrazol-5-yl]amino}carbonyl)amino]-methyl}benzyl)oxy]-3-chloro-6-methyl-2-oxopyridin-1(2H)-yl}-4-methylbenzamide] is 2-fold lower in IC50: 1.8 nM for the first, 0.9 nM for the second.

Cc1ccc(C(=O)NCCO)cc1-n1c(C)cc(OCc2ccc(F)cc2CNC(=O)Nc2cc(C(C)(C)C)nn2-c2cccc(OCCO)c2)c(Cl)c1=O [Example 239, 3-[4-{[2-({[({3-tert-butyl-1-[3-(2-hydroxyethoxy)phenyl]-1H-pyrazol-5-yl}amino)carbonyl]amino}methyl)-4-fluorobenzyl]-oxy}-3-chloro-6-methyl-2-oxopyridin-1(2H)-yl]-N-(2-hydroxy-ethyl)-4-methylbenzamide] and Cc1ccc(C(=O)NCCO)cc1-n1c(C)cc(OCc2ccccc2CNC(=O)Nc2cc(C(C)(C)C)nn2-c2cccc(OCCO)c2)c(Cl)c1=O [Example 210, 3-[4-{[2-({[({3-tert-butyl-1-[3-(2-hydroxyethoxy)phenyl]-1H-pyrazol-5-yl}amino)carbonyl]amino}methyl)-benzyl]oxy}-3-chloro-6-methyl-2-oxopyridin-1(2H)-yl]-N-(2-hydroxyethyl)-4-methylbenzamide] are the same in IC50: 2.9 nM for the first, 2.9 nM for the second.

Compared with COC(=O)c1ccc(C)c(-n2c(C)cc(OCc3ccccc3CNC(=O)Nc3cc(C(C)(C)C)nn3-c3cccc(OCCO)c3)c(Cl)c2=O)c1 [Example 209, methyl 3-[4-{[2-({[({3-tert-butyl-1-[3-(2-hydroxyethoxy)-phenyl]-1H-pyrazol-5-yl}amino)carbonyl]-amino}methyl)-benzyl]oxy}-3-chloro-6-methyl-2-oxopyridin-1(2H)-yl]-4-methylbenzoate], COc1ccccc1Cn1c(C)cc(OCc2ccccc2CNC(=O)Nc2cc(C(C)(C)C)nn2-c2cccc(O)c2)c(Cl)c1=O [Example 247, 1-[3-tert-butyl-1-(3-hydroxyphenyl)-1H-pyrazol-5-yl]-3-[2-({[3-chloro-1-(2-methoxybenzyl)-6-methyl-2-oxo-1,2-dihydropyridin-4-yl]oxy}methyl)benzyl]urea] is 2.8-fold higher in IC50: 3.8 nM for the first, 10.5 nM for the second.

Going from COc1ccc(Cn2c(C)cc(OCc3ccccc3CNC(=O)Nc3cc(C(C)(C)C)nn3-c3ccc(O)cc3)c(C)c2=O)cc1Cl [Example 267, 1-[3-tert-butyl-1-(4-hydroxyphenyl)-1H-pyrazol-5-yl]-3-[2-({[1-(3-chloro-4-methoxybenzyl)-3,6-dimethyl-2-oxo-1,2-dihydro-pyridin-4-yl]oxy}methyl)benzyl]urea] to COc1ccc(Cn2c(C)cc(OCc3ccccc3CNC(=O)Nc3cc(C(C)(C)C)nn3-c3ccc(O)cc3)c(C)c2=O)cc1C#N [Example 253, 1-[3-tert-butyl-1-(4-hydroxyphenyl)-1H-pyrazol-5-yl]-3-[2-({[1-(3-cyano-4-methoxybenzyl)-3,6-dimethyl-2-oxo-1,2-dihydropyridin-4-yl]oxy}methyl)benzyl]urea], the IC50 falls from 16.2 nM to 8.3 nM (2-fold). The second is the more potent here.
